PubChem BioAssay AID248 (DTP/NCI, 2004)
Several values for one entry are separate records, joined by “and”; a condition that tells them apart may be missing. Equal values may be shown once. Inconclusive results and toxic doses are left out.

Tested on: L1210 leukemia ip in BDF1 mice, survival T/C
Assay: NCI In Vivo Anticancer Drug Screen. Data for tumor model L1210 Leukemia (intraperitoneal) in B6D2F1 (BDF1) mice
Conditions: endpoint: mean survival time, higher = longer survival
How it was run: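 Tumor cells were implanted, animals were treated, and survival was followed. The result divides the treated measurement by the vehicle-control measurement.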

[1] = dose: 100.0 mg/kg/injection, schedule: Q04DX003 (ip), vehicle: Klucel (hydroxypropylcellulose) (HPC)
[2] = dose: 200.0 mg/kg/injection, schedule: Q04DX003 (ip), vehicle: Klucel (hydroxypropylcellulose) (HPC)
[3] = dose: 400.0 mg/kg/injection, schedule: Q04DX003 (ip), vehicle: Klucel (hydroxypropylcellulose) (HPC)
[4] = dose: 100.0 mg/kg/injection, schedule: Q01DX001 (ip), vehicle: saline
[5] = dose: 100.0 mg/kg/injection, schedule: Q04DX003 (ip), vehicle: saline
[6] = dose: 200.0 mg/kg/injection, schedule: Q01DX001 (ip), vehicle: saline
[7] = dose: 200.0 mg/kg/injection, schedule: Q04DX003 (ip), vehicle: saline
[8] = dose: 400.0 mg/kg/injection, schedule: Q01DX001 (ip), vehicle: saline
[9] = dose: 400.0 mg/kg/injection, schedule: Q04DX003 (ip), vehicle: saline
[10] = dose: 12.5 mg/kg/injection, schedule: Q04DX003 (ip), vehicle: saline with Tween-80
[11] = dose: 25.0 mg/kg/injection, schedule: Q01DX009 (ip), vehicle: saline with Tween-80
[12] = dose: 25.0 mg/kg/injection, schedule: Q04DX003 (ip), vehicle: saline with Tween-80
[13] = dose: 100.0 mg/kg/injection, schedule: Q01DX001 (ip), vehicle: carboxymethylcellulose (CMC)
[14] = dose: 200.0 mg/kg/injection, schedule: Q01DX001 (ip), vehicle: carboxymethylcellulose (CMC)
[15] = dose: 400.0 mg/kg/injection, schedule: Q01DX001 (ip), vehicle: carboxymethylcellulose (CMC)

Compound: CCOC(=O)c1n[nH]c(=S)[nH]c1=S
- T/C (dose: 100.0 mg/kg/injection, schedule: Q01DX001 (ip), vehicle: acetone): 102 % of control
- T/C (dose: 200.0 mg/kg/injection, schedule: Q01DX001 (ip), vehicle: acetone): 101 % of control
- T/C (dose: 400.0 mg/kg/injection, schedule: Q01DX001 (ip), vehicle: acetone): 107 % of control

Compound: O=C(O)c1ccccc1C(=O)c1ccc2ccccc2c1
- T/C (dose: 12.5 mg/kg/injection, schedule: Q04DX002 (ip), vehicle: saline with Tween-80): 94 % of control
- T/C (dose: 25.0 mg/kg/injection, schedule: Q04DX002 (ip), vehicle: saline with Tween-80): 88 % of control
- T/C (dose: 50.0 mg/kg/injection, schedule: Q04DX002 (ip), vehicle: saline with Tween-80): 91 % of control

Compound: O=C(O)CCc1ccc([N+](=O)[O-])cc1Cl
- T/C [1]: 96 % of control
- T/C [2]: 101 % of control
- T/C [3]: 101 % of control

Compound: BrC12CCC(CC1)C1(Br)CCC2CC1
- T/C [4]: 102 % of control
- T/C [5]: 86 % of control
- T/C [6]: 96 % of control
- T/C [7]: 91 % of control
- T/C [8]: 89 % of control
- T/C [9]: 86 % of control

Compound: COc1ccc2c3c(ccc2c1)C(=O)/C(=C\O)CC3
- T/C (dose: 25.0 mg/kg/injection, schedule: Q01DX009 (ip), vehicle: Klucel (hydroxypropylcellulose) (HPC)): 92 % of control
- T/C (dose: 25.0 mg/kg/injection, schedule: Q04DX003 (ip), vehicle: Klucel (hydroxypropylcellulose) (HPC)): 100 % of control
- T/C (dose: 50.0 mg/kg/injection, schedule: Q01DX009 (ip), vehicle: Klucel (hydroxypropylcellulose) (HPC)): 108 % of control
- T/C (dose: 50.0 mg/kg/injection, schedule: Q04DX003 (ip), vehicle: Klucel (hydroxypropylcellulose) (HPC)): 101 % of control
- T/C (dose: 100.0 mg/kg/injection, schedule: Q01DX009 (ip), vehicle: Klucel (hydroxypropylcellulose) (HPC)): 88 % of control
- T/C [1]: 100 % of control and 103 % of control
- T/C [2]: 103 % of control

Compound: c1ccc(CC(Cc2ccccc2)NC2=NCCO2)cc1
- T/C (dose: 6.25 mg/kg/injection, schedule: Q01DX009 (ip), vehicle: saline with Tween-80): 106 % of control
- T/C (dose: 6.25 mg/kg/injection, schedule: Q04DX003 (ip), vehicle: saline with Tween-80): 107 % of control
- T/C (dose: 12.5 mg/kg/injection, schedule: Q01DX009 (ip), vehicle: saline with Tween-80): 94 % of control
- T/C [10]: 106 % of control
- T/C [11]: 89 % of control
- T/C [12]: 102 % of control

Compound: CC1([N+](=O)[O-])COP(=O)(NCc2cccnc2)OC1 (configuration not stated)
- T/C (dose: 50.0 mg/kg/injection, schedule: Q01DX001 (ip), vehicle: carboxymethylcellulose (CMC)): 103 % of control
- T/C [13]: 95 % of control
- T/C [14]: 113 % of control
- T/C [15]: 95 % of control

Compound: O=C(O)c1cc[c]([Hg][S]c2ncnc3nc[nH]c23)cc1
- T/C (dose: 6.0 mg/kg/injection, schedule: Q01DX Z (ip), vehicle: carboxymethylcellulose (CMC)): 105 % of control
- T/C (dose: 6.25 mg/kg/injection, schedule: Q01DX015 (ip), vehicle: saline): 110 % of control
- T/C (dose: 12.0 mg/kg/injection, schedule: Q01DX Z (ip), vehicle: carboxymethylcellulose (CMC)): 116 % of control
- T/C (dose: 16.5 mg/kg/injection, schedule: Q01DX009 (ip), vehicle: saline): 118 % of control
- T/C (dose: 25.0 mg/kg/injection, schedule: Q01DX015 (ip), vehicle: saline): 164 % of control
- T/C (dose: 50.0 mg/kg/injection, schedule: Q01DX Z (ip), vehicle: carboxymethylcellulose (CMC)): 103 % of control
- T/C (dose: 100.0 mg/kg/injection, schedule: Q01DX Z (ip), vehicle: carboxymethylcellulose (CMC)): 114 % of control

Compound: CCCCOc1ccc(C(=O)NN)cc1
- T/C [11]: 93 % of control
- T/C (dose: 50.0 mg/kg/injection, schedule: Q01DX009 (ip), vehicle: saline with Tween-80): 102 % of control
- T/C (dose: 100.0 mg/kg/injection, schedule: Q01DX009 (ip), vehicle: saline with Tween-80): 88 % of control

Compound: O=C(c1ccccc1)N1CC1(c1ccccc1)C1(c2ccccc2)SCCCS1 (configuration not stated)
- T/C (dose: 100.0 mg/kg/injection, schedule: Q01DX001 (ip), vehicle: Klucel (hydroxypropylcellulose) (HPC)): 95 % of control
- T/C (dose: 200.0 mg/kg/injection, schedule: Q01DX001 (ip), vehicle: Klucel (hydroxypropylcellulose) (HPC)): 98 % of control
- T/C (dose: 400.0 mg/kg/injection, schedule: Q01DX001 (ip), vehicle: Klucel (hydroxypropylcellulose) (HPC)): 92 % of control

Compound: CCOC(OC(C)=O)OC(C)=O
- T/C [5]: 87 % of control
- T/C [7]: 101 % of control
- T/C [9]: 97 % of control

Compound: Nc1nc2c(c(-c3ccccc3)n1)CN(CCC(=O)O)C2=O
- T/C [4]: 103 % of control
- T/C [5]: 98 % of control
- T/C [6]: 107 % of control
- T/C [7]: 100 % of control
- T/C [8]: 100 % of control
- T/C [9]: 98 % of control

Compound: COC(=O)C1C2C(C)=C3CCCCC3(C1C(=O)OC)C(C(=O)OC)C2C(=O)OC (configuration not stated)
- T/C [4]: 113 % of control
- T/C [6]: 95 % of control
- T/C [8]: 86 % of control

Compound: CCCCCCOCCN1CCN(CCCN2c3ccccc3Sc3ccc(C(F)(F)F)cc32)CC1
- T/C [10]: 106 % of control
- T/C [12]: 101 % of control
- T/C (dose: 50.0 mg/kg/injection, schedule: Q04DX003 (ip), vehicle: saline with Tween-80): 101 % of control
- T/C (dose: 100.0 mg/kg/injection, schedule: Q04DX003 (ip), vehicle: saline with Tween-80): 93 % of control

Compound: CCCCOC(=O)c1ccc(OC(=O)NC(C)(C)C)cc1
- T/C (dose: 25.0 mg/kg/injection, schedule: Q04DX003 (ip), vehicle: gum acacia): 102 % of control and 90 % of control
- T/C (dose: 50.0 mg/kg/injection, schedule: Q04DX003 (ip), vehicle: gum acacia): 94 % of control and 102 % of control
- T/C (dose: 100.0 mg/kg/injection, schedule: Q01DX001 (ip), vehicle: gum acacia): 105 % of control
- T/C (dose: 100.0 mg/kg/injection, schedule: Q04DX003 (ip), vehicle: gum acacia): 98 % of control and 100 % of control
- T/C (dose: 200.0 mg/kg/injection, schedule: Q01DX001 (ip), vehicle: gum acacia): 95 % of control
- T/C (dose: 400.0 mg/kg/injection, schedule: Q01DX001 (ip), vehicle: gum acacia): 103 % of control

Compound: Cc1cc(C)c(N(CC(=O)O)S(=O)(=O)c2ccccc2)c(C)c1Br
- T/C (dose: 75.0 mg/kg/injection, schedule: Q04DX003 (ip), vehicle: Klucel (hydroxypropylcellulose) (HPC)): 92 % of control
- T/C (dose: 150.0 mg/kg/injection, schedule: Q04DX003 (ip), vehicle: Klucel (hydroxypropylcellulose) (HPC)): 90 % of control
- T/C (dose: 300.0 mg/kg/injection, schedule: Q04DX003 (ip), vehicle: Klucel (hydroxypropylcellulose) (HPC)): 90 % of control

Compound: O=P(CCCCCCP(=O)(N1CC1)N1CC1)(N1CC1)N1CC1
- T/C (dose: 25.0 mg/kg/injection, schedule: Q01DX009 (ip), vehicle: carboxymethylcellulose (CMC)): 112 % of control and 115 % of control
- T/C (dose: 50.0 mg/kg/injection, schedule: Q01DX009 (ip), vehicle: carboxymethylcellulose (CMC)): 120 % of control and 121 % of control
- T/C [13]: 116 % of control
- T/C [14]: 103 % of control
- T/C (dose: 200.0 mg/kg/injection, schedule: Q01DX009 (ip), vehicle: carboxymethylcellulose (CMC)): 98 % of control and 101 % of control

Compound: CCSCCOC(=S)Nc1ccccc1
- T/C [1]: 98 % of control
- T/C [2]: 97 % of control
- T/C [3]: 92 % of control

Compound: CC(C)(C#N)N=NC(C)(C)C#N
- T/C (dose: 25.0 mg/kg/injection, schedule: Q01DX009 (ip), vehicle: alcohol): 96 % of control
- T/C (dose: 50.0 mg/kg/injection, schedule: Q01DX009 (ip), vehicle: alcohol): 96 % of control
- T/C (dose: 50.0 mg/kg/injection, schedule: Q04DX003 (ip), vehicle: alcohol): 98 % of control
- T/C (dose: 100.0 mg/kg/injection, schedule: Q04DX003 (ip), vehicle: alcohol): 95 % of control

Compound: CN(C)c1cc2c3c(c1)CCCN3CCC2
- T/C (dose: 6.25 mg/kg/injection, schedule: Q01DX001 (ip), vehicle: saline): 108 % of control
- T/C (dose: 12.5 mg/kg/injection, schedule: Q01DX001 (ip), vehicle: saline): 101 % of control

Compound: S=c1nc[nH]c2[nH]ncc12
- T/C [13]: 108 % of control
- T/C [14]: 93 % of control
- T/C [15]: 93 % of control
